The source of these data is article PMC9775090, “Identification of Bioactive Peptides from Nannochloropsis oculata Using a Combination of Enzymatic Treatment, in Silico Analysis and Chemical Synthesis” (Biomolecules, 2022).

One assay has as its system ovine recombinant COX-1. Briefly: Cyclooxygenase inhibition, cell free assay (COX-1). The conditions noted are these: for COX-1 inhibition: assayed at 1 mg/mL, ovine recombinant COX-1. Type of assay: biochemical. The protocol:
(§1) In vitro assays to determine COX inhibition were performed using cell free assays as described previously. The synthesised peptides were incubated independently with ovine recombinant COX-1 (Cayman Chemicals, Hamburg, Germany) or human recombinant COX-2 (Cayman Chemicals, Hamburg, Germany). The assay was carried out in accordance with the manufacturer’s instructions. Resveratrol (Merck, Dublin, Ireland) was used as a positive control.

Another assay has as its system human recombinant COX-2. Briefly: Cyclooxygenase inhibition, cell free assay (COX-2). In kind it is biochemical. The following applies: for COX-2 inhibition: assayed at 1 mg/mL, human recombinant COX-2. The protocol: as §1
Assay [1] has as its target T1, Angiotensin-1-converting enzyme (ACE-1) (Homo sapiens, UniProt P12821).
T1 construct: purchased Tebu Bio (TebuBio Ltd., Peterborough, UK)
Briefly: ACE-1 inhibition, ACE kit-WST 96-well colorimetric assay. In kind it is biochemical. The conditions noted are these: for Observed Bioactivity In Vitro (ACE-1): result in words; for % ACE-1 inhibition / inhibition at 1000 µg/mL: synthesised peptides assayed at 1 mg/mL, n = 3; for inhibition at 1000 µg/mL: read-out: % ACE-1 inhibition. The protocol:
The ACE-I inhibitory activity was determined using a 96 well plate bioassay supplied by Tebu-Bio (TebuBio Ltd., Peterborough, UK) in accordance with the manufacturers’ instructions. Briefly, the enzyme working solution and indicator working solution were prepared according to the manufacturer’s instructions. […] Blanks were included. 20 µL of the substrate buffer was added to each well, followed by 20 µL of the enzyme working solution to experimental wells and blank one wells. The plate was incubated at 37 °C for 1 h. After incubation, 200 µL indicator working solution was added to each well, and the plate was incubated at room temperature for 10 min. […] Absorbance was measured using a plate reader at 450 nm. For IC50 determination, the ACE kit-WST was also used.

The test system of the next assay is Escherichia coli DSM 301. Briefly: Modified agar well diffusion assay, E. coli. In kind it is cell-based. The conditions noted are these: 1 mg/mL in 30 µL well, 24 h. How it is done: (§2) The antibacterial activity of synthesised peptides was determined using an overnight culture of the pathogenic bacteria in a modified agar well diffusion assay as described previously. A zone of inhibition around wells containing the peptides indicates antibacterial activity. Escherichia coli DSM 301 and Bacillus cereus DSM 31 were used as indicator pathogen strains. Ampicillin (Merck, Dublin, Ireland) and Cecropin P1 (Merck, Dublin Ireland) were used as positive control antibiotics and antimicrobial peptides. Positive controls or test peptides were incubated (concentration 1 mg/mL) in a well (30 µL capacity) on the agar plate which was seeded with the pathogenic strain at an overnight culture to media ratio of 100 µL: 500 mL (v:v). Plates were left at 4 °C for 4 h and subsequently incubated at the optimum culture temperature and conditions for the pathogen in question. After 24 h, zones of inhibition indicated the presence of antibacterial activity.

Another assay relates to Bacillus cereus DSM 31. Briefly: Modified agar well diffusion assay, B. cereus. Type of assay: cell-based. The conditions noted are these: 1 mg/mL in 30 µL well, 24 h. How it is done:
as §2
A general note: A growth-free zone around the sample is the usual read-out of agar diffusion tests.

Another assay concerns ACE-1. The conditions noted are these: cited from earlier work. The protocol: Limited studies exist concerning the use of Nannochloropsis sp. as a source of protein, protein hydrolysates or bioactive peptides. Recently, […] et al. […] Enzymatic treatment of biomass is a useful strategy for generation of bioactive peptide containing concentrates. […] These peptides were selected based on their Peptide Ranker scores and amino acid sequences. The ACE-1 and COX-1/COX-2 assays were performed as described previously described using commercially available kits from Cambridge BioSciences (Cambridge BioSciences, Cambridge, UK).

Setting [2] is: peptides from pepsin treated Nannochloropsis oculata.

“Also recorded” adds a separate entry of the source. Like-named read-outs stand apart in the source and are kept apart here. Where no end group is shown, it is not given here.

T1 sequence (P12821 30-1306): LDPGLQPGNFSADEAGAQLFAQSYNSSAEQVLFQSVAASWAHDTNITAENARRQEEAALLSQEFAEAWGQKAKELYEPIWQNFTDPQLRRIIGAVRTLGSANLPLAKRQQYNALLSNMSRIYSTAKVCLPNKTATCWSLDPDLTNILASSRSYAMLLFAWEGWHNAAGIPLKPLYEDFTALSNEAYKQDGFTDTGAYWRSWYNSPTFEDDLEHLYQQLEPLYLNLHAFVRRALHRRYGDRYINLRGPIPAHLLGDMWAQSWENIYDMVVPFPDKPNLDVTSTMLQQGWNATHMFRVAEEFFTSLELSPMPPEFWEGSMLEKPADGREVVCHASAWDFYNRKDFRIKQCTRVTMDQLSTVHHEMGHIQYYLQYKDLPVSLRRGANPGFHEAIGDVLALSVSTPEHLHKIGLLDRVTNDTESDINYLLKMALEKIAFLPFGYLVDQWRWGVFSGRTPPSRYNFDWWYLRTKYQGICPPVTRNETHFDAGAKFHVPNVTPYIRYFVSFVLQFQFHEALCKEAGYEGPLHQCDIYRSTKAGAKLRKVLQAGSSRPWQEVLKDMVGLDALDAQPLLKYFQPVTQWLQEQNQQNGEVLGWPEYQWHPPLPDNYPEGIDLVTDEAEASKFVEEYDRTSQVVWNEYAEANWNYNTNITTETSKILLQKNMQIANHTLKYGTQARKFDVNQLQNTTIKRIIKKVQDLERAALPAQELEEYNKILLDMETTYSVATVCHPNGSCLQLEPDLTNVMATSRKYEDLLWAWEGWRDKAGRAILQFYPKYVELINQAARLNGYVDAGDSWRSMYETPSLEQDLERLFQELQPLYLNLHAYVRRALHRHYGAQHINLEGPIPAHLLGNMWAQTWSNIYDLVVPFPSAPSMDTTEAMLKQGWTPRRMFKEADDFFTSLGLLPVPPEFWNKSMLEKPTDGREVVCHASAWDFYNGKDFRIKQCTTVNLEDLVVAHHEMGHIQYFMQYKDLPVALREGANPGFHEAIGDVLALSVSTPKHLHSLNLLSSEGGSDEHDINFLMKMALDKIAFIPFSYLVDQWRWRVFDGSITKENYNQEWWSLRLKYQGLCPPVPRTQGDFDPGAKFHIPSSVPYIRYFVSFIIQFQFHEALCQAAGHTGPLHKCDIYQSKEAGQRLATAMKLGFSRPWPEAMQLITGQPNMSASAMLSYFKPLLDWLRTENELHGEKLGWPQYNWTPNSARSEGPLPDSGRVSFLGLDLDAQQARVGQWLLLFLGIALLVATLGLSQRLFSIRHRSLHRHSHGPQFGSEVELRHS

As for `Oc1ccc(/C=C/c2cc(O)cc(O)c2)cc1` [Resveratrol, reference compound], the COX-1 inhibition in the assay on ovine recombinant COX-1 is recorded as 78.41 (±2.92) %. Besides, in the assay on human recombinant COX-2, the COX-2 inhibition came out at 70.41%. Regarding AGDVGFDPLGF, the “Observed Bioactivity In Vitro (ACE-1)” value in assay [1] is listed as “ACE-1 inhibitory”. In the assay on Escherichia coli DSM 301, the “Antibacterial activity against E. coli (zone of inhibition)” value was “having antibacterial activity in vitro against E. coli; also recorded: produced a zone of inhibition; also recorded: Antibacterial activity against E. coli at a concentration of 1 mg/mL”. For the same compound, the “Antibacterial activity against B. cereus (zone of inhibition)” value with Bacillus cereus DSM 31 is reported as “not B. cereus”. For GMNNLTP [GMNNLTP], the IC50 – broadly, the concentration needed to halve the response being measured – in the assay on ACE-1 (setting [2]) is 123 µM. “KGGGSGANGGRL [peptide identified in Nannochloropsis sp. xylanase permeate, chemically synthesised; spelt three ways]”: in assay [1] (listed as KGGGGGANGGRL), the “% ACE-1 inhibition” value is recorded as 35.81%.

On to “LVGADAHALGVICS [peptide corresponding to a transcriptor initiation protein from Porphyridium sp., chemically synthesised]”, for which the “Observed Bioactivity In Vitro (ACE-1)” value in assay [1] is on record as “ACE-1 inhibition”.

Turning to Leu-Glu-Gln [LEQ], the IC50 with ACE-1 (setting [2]) was 173 µM. For Leu-Val-Thr-Val-Met, in the assay on ACE-1 (purified peptide from Alcalase hydrolysate), the IC50 was 18 µM. NKFPYTTQ [NKFPYTTQ]: in assay [1], the inhibition (in general, the percentage by which the read-out fell short of the control) at 1000 µg/mL turned out to be 76.8%. Turning to “VVGAVGAADLL [peptide corresponding to HEAT repeat-containing protein 1 of Ectocarpus siliculosus, chemically synthesised]”, in assay [1], the “Observed Bioactivity In Vitro (ACE-1)” value is “ACE-1 inhibition” and the “% ACE-1 inhibition” value came to 25.73%. With VYNKFPYTTQ [VYNKFPYTTQ], the inhibition at 1000 µg/mL in assay [1] amounted to 81.7%. “YANDLLCMPI [peptide identified in Nannochloropsis sp. xylanase permeate, chemically synthesised]”: the COX-1 inhibition in the assay on ovine recombinant COX-1 is recorded as 34.5%. Further, in the assay on ovine recombinant COX-1 (result in words), the “Observed Bioactivity In Vitro (COX-1)” value was “COX-1 and COX-2 inhibition”. Moreover, the COX-2 inhibition in the assay on human recombinant COX-2 is 47.65%. In addition, the “Observed Bioactivity In Vitro (COX-2)” value in the assay with human recombinant COX-2 (result in words) was “COX-1 and COX-2 inhibition”.
